# Where a name gives a salt, the structure may show the parent alone.
# Experiment: not given
# Details: not given
row,Compound,PAMPA-BBB Pe(10^-6 cm/sec)
1,COc1cc2c(c3oc(=O)c4c(c13)CCOC4=O)C1C=COC1O2 (stereo not drawn) [AFLATOXIN G1],<1 10^-6 cm/sec
2,COc1cc2c(c3oc(=O)c4c(c13)CCC4=O)[C@@H]1C=CO[C@@H]1O2 [AFLATOXIN B1],7.2 10^-6 cm/sec

# Same assay, conditions: PAMPA
Compound,PAMPA-BBB Pe,PAMPA-BBB Pe(10^-6 cm/sec)
COc1ccc2c(c1OC)C(=O)O[C@@H]2[C@H]1c2c(cc3c(c2OC)OCO3)CCN1C [NOSCAPINE HYDROCHLORIDE],75 10^-6 cm/sec,–
O=C(N[C@H](CO)[C@H](O)c1ccc([N+](=O)[O-])cc1)C(Cl)Cl [CHLORAMPHENICOL],–,3.5 10^-6 cm/sec

# Same assay, conditions: Table S2: compounds exhibiting moderate to high PAMPA-BBB permeability
row,Compound,PAMPA-BBB Pe
1,c1cnc2c(-c3nccc4c3[nH]c3ccccc34)cccc2c1 [NCGC00160283-01],352 10^-6 cm/sec
2,C[C@@H]1O[C@@H](O[C@H]2CC[C@@H](O[C@H]3[C@H](O)C[C@H](c4ccc5c(c4O)C(=O)C4=C(C5=O)[C@@]5(O)C(=O)C[C@](C)(O[C@H]6CC[C@H](O[C@H]7C=CC(=O)[C@H](C)O7)[C@H](C)O6)C[C@@]5(O)C=C4)O[C@@H]3C)O[C@H]2C)C=CC1=O [NCGC00163640-01],17 10^-6 cm/sec
3,CCCCCc1c2c(cc(O)c1C(=O)O)OC(=O)c1cc(C(=O)CCCC)c(OC)cc1O2 [NCGC00160140-01],120 10^-6 cm/sec
4,COc1cccc2c(=O)c3ccoc3n(C)c12 [NCGC00160208-01],54 10^-6 cm/sec
5,COc1cc(O)c2c(c1)/C=C/C[C@H](O)[C@H](O)[C@H](O)CCC[C@H](C)OC2=O [NCGC00189513-01],245 10^-6 cm/sec
6,COc1ccc2c(c1)O[C@@H]1COc3cc(OC)c(OC)cc3[C@@H]1C2=O [NCGC00178970-02],355 10^-6 cm/sec
7,COC(=O)C[C@H]1C2(C)C[C@]34O[C@@]5(C)O[C@@]6([C@H](OC(C)=O)C(OC(C)=O)[C@]7(C)C(/C(=C(/O)C(C)C)C(=O)O[C@H]7c7ccoc7)[C@@]6(O5)[C@H](OC(C)=O)[C@@]3(O)C2OC(=O)C(C)C)[C@]14C (stereo partly drawn) [NCGC00264007-02],28 10^-6 cm/sec
8,O=C1CCC[C@H]2[C@H]3CCCN4CCCC(=CN12)[C@@H]34 [NCGC00160276-01],33 10^-6 cm/sec
9,O=C(/C=C/c1ccc(O)c(O)c1)OCCc1ccccc1 [PHENETHYL CAFFEATE],>1000 10^-6 cm/sec
10,COC(=O)c1c(OC)cc2c(c1C)Oc1c(Cl)c(O)c(Cl)c(C)c1C(=O)O2 [NCGC00095466-04],27 10^-6 cm/sec
11,CC(=O)OC(C)(C)[C@@H]1Cc2cc3ccc(=O)oc3cc2O1 [NCGC00178115-02],128 10^-6 cm/sec
12,COc1cc(OC)c2c(c1Cl)O[C@]1(C2=O)[C@H](C)CC(=O)C[C@@H]1OC [NCGC00016380-01],31 10^-6 cm/sec
13,COc1cc2c(cc1O)[C@@H]1Cc3ccc(OC)c(O)c3CN1CC2 [NCGC00179539-03],78 10^-6 cm/sec
14,CC(=O)Oc1ccc(/C=C/c2cc(OC(C)=O)cc(OC(C)=O)c2)cc1 [NCGC00095675-03],200 10^-6 cm/sec
15,CC1=CC(=O)C2=C(C)C[C@@H]3OC(=O)[C@@H](C)[C@H]3C=C12 [NCGC00160288-01],74 10^-6 cm/sec
16,CCOC(=O)c1c(C)cc(O)c(C=O)c1O [NCGC00095517-01],110 10^-6 cm/sec
17,C=C(C)[C@H]1COc2cc3oc(=O)ccc3cc2O1 [NCGC00179107-03],152 10^-6 cm/sec
18,CN(C)CCc1cc2c(c3c1ccc1ccccc13)OCO2 [NCGC00160247-01],27 10^-6 cm/sec
19,C/C=C/c1ccc(OC(C)[C@@H](O)c2ccc(O)c(OC)c2)c(OC)c1 (stereo partly drawn) [NCGC00160251-01],150 10^-6 cm/sec
20,COc1ccc(C(=O)OC2C[C@H]3CC[C@H](C2)N3C)cc1OC (stereo partly drawn) [NCGC00016471-04],16 10^-6 cm/sec
21,COc1cc(/C=C/C(=O)c2ccc(O)cc2O)ccc1O [NCGC00163564-01],188 10^-6 cm/sec
22,COc1cc2c(cc1OC)-c1cc3cc(OC)c(OC)cc3c(=O)n1CC2 [NCGC00160189-01],232 10^-6 cm/sec
23,COc1ccc(C(=O)OC2CC3CC[C@H](C2)N3C(C)=O)cc1OC (stereo partly drawn) [NCGC00160255-01],22 10^-6 cm/sec
24,COc1cc2c(cc1-c1coc3c4c(c(OC)cc3c1=O)OC(C)(C)C=C4)OCO2 [NCGC00178961-03],146 10^-6 cm/sec

# Same assay, conditions: Table S3: compounds exhibiting low PAMPA-BBB permeability
row,Compound,PAMPA-BBB Pe(10^-6 cm/sec)
1,COc1cc(C(=O)OC2C[C@H]3CC[C@@H](C2)N3C)ccc1O (stereo partly drawn) [NCGC00179405-02],8.5 10^-6 cm/sec
2,COC(=O)[C@H](Cc1ccccc1)NC(=O)/C(=C1\OC(=O)C(c2ccccc2)=C1O)c1ccccc1 [NCGC00263991-01],<1 10^-6 cm/sec
3,OC[C@H]1O[C@@H](n2cnc3cncnc32)[C@H](O)[C@@H]1O [NEBULARINE¦NEBULARINE],<1 10^-6 cm/sec
4,CC(=O)NCCc1c[nH]c2ccccc12 [NCGC00260786-01],5.7 10^-6 cm/sec
5,O=C(CO)c1c[nH]c2ccccc12 [NCGC00182562-01],6.7 10^-6 cm/sec
6,COc1cc(/C=C2/C(=O)Nc3ccccc32)cc(OC)c1O [NCGC00343740-01],4.8 10^-6 cm/sec
7,O=C(O)c1cc2ccccc2[nH]1 [NCGC00094957-03],<1 10^-6 cm/sec
8,N[C@H](C(=O)O)c1ccc(O)c(C(=O)O)c1 [NCGC00024539-02],<1 10^-6 cm/sec
9,CC(=O)NCCc1ccc(O)c(-c2c(O)c(O)c3c(c2O)C(=O)c2c(cc(O)c(C(=O)O)c2C(=O)O)C3=O)c1 [NCGC00263986-01],<1 10^-6 cm/sec
10,Cc1c(O)c2c(c(C(=O)/C=C/c3ccccc3)c1O)OC(C)(C)C=C2 [NCGC00187465-01],<1 10^-6 cm/sec
11,O=C(NC[C@H](O)c1ccccc1)c1ccccc1 [NCGC00160191-01],<1 10^-6 cm/sec
12,CC(=O)O[C@H]1C[C@@H](OC(C)=O)C(C)(C)C2C[C@@H](OC(C)=O)[C@]3(C)C(CC[C@@]4(C)[C@H](c5ccoc5)OC(=O)[C@H]5O[C@]543)[C@]21C (stereo partly drawn) [NCGC00179019-03],2.7 10^-6 cm/sec
13,COc1c2ccoc2nc2c(OC)c(O[C@@H]3O[C@H](C)[C@@H](O)[C@@H](O)[C@H]3O)ccc12 [NCGC00160235-01],<1 10^-6 cm/sec
14,CNCCCCc1cnc(C)c2[nH]c3ccccc3c12 [NCGC00160349-01],<1 10^-6 cm/sec
15,O=C1c2ccccc2-[n+]2ccc3c([nH]c4ccccc43)c21 [NCGC00346951-03],<1 10^-6 cm/sec
16,OC1c2ccccc2N=C2CCCN21 (stereo not drawn) [NCGC00163606-01],5.3 10^-6 cm/sec
17,C=C/C(C)=C/[C@@]1(C)SC(=O)C(C)=C1O [NCGC00261593-01],<1 10^-6 cm/sec
18,COc1ccc2[nH]cc(CCO)c2c1 [NCGC00163352-01],9.4 10^-6 cm/sec
19,C/C=C(\C)C(=O)O[C@H]1CC(C)=C2C(=O)C=C(C)C2[C@@H]2OC(=O)[C@@](C)(OC(=O)C=C(C)C)C21 (stereo partly drawn) [NCGC00160270-01],5.7 10^-6 cm/sec
20,C[N+]12CC[C@@]34c5ccccc5N5C(=O)C[C@@H]6OCC=C(C1)[C@H](CC32)[C@@H]6C54 (stereo partly drawn) [NCGC00264058-02],<1 10^-6 cm/sec
21,COc1c(O)cc2c(=O)oc3c(OC)c(O)cc4c(=O)oc1c2c34 [NCGC00160203-01],<1 10^-6 cm/sec
22,COC1=C(O)C(=O)c2c(cc3oc(C(C)=O)c(O)c3c2O)C1=O [NCGC00178066-02],<1 10^-6 cm/sec
23,CC1=CC(=O)/C(=C(/C)O)C(=O)O1 [NCGC00254206-01],3.3 10^-6 cm/sec

# Same assay, conditions: category in words
row,Compound,PAMPA-BBB permeability category
1,"CC(=O)[C@H]1CC[C@H]2[C@@H]3CCC4=CC(=O)CC[C@]4(C)[C@H]3CC[C@]12C [progesterone, reference compound]",high permeability

# Experiment: in vitro
# Details: PAMPA, PAMPA-BBB Pe
row,Compound,Papp
1,O=C1C[C@@H]2OCC=C3CN4CC[C@]56c7ccccc7N1[C@H]5[C@H]2[C@H]3C[C@H]46 [[…]],13 ×10⁻⁶ cm/s

# Same assay, conditions: PAMPA, PAMPA-BBB Pe(10^-6 cm/sec)
row,Compound,Papp
1,CC(=O)O[C@@]12CO[C@@H]1C[C@H](O)[C@@]1(C)C(=O)[C@H](O)C3=C(C)[C@@H](O)C[C@@](O)([C@@H](OC(=O)c4ccccc4)[C@H]21)C3(C)C [10-DEACETYL BACCATIN III],< 1 ×10⁻⁶ cm/s
2,CC1=C(C)C(=O)C(CC[C@](C)(O)CCC[C@H](C)CCC[C@H](C)CCCC(C)C)=C(C)C1=O [.ALPHA.-TOCOPHERYLQUINONE],7.2 ×10⁻⁶ cm/s
3,Cn1cnc2c1c(=O)[nH]c(=O)n2C [THEOBROMINE],< 1 ×10⁻⁶ cm/s

# Same assay, conditions: PAMPA, PAMPA-BBB Pe(10^-6 cm/sec), Table S3: compounds exhibiting low PAMPA-BBB permeability
row,Compound,Papp
1,CC1=C(/C=C/C(C)=C/C=C/C(C)=C/C=C/C=C(C)/C=C/C=C(C)/C=C/C2=C(C)C[C@@H](O)CC2(C)C)C(C)(C)C[C@H](O)C1 [ZEAXANTHIN],2.1 ×10⁻⁶ cm/s
2,"O=C(O)/C=C/c1ccc2c(c1)OCO2 [3,4-METHYLENEDIOXYCINNAMIC ACID]",< 1 ×10⁻⁶ cm/s
3,Oc1ccc(-c2[o+]c3cc(O)cc(O)c3cc2O)cc1 [PELARGONIDIN],< 1 ×10⁻⁶ cm/s
4,COC1=C[C@@H]2[C@@H]3Cc4ccc(OC)c(O)c4[C@]2(CCN3C)CC1=O [SINOMENINE],2.2 ×10⁻⁶ cm/s
5,COc1cc(C(O)CN)ccc1O (stereo not drawn) [NORMETADRENALINE HYDROCHLORIDE],< 1 ×10⁻⁶ cm/s
6,O=C(OCC1=C[C@@H](O)[C@@H]2C=CO[C@@H](O[C@@H]3O[C@H](CO)[C@@H](O)[C@H](O)[C@H]3O)[C@H]12)c1ccc(O)cc1 [AGNUSIDE],< 1 ×10⁻⁶ cm/s

# Same assay, conditions: PAMPA, PAMPA-BBB Pe, Table S2: compounds exhibiting moderate to high PAMPA-BBB permeability
row,Compound,Papp
1,CC(C)[C@H]1C(=O)N[C@H](CO)Cc2c[nH]c3cccc(c23)N1C [[…]],47 ×10⁻⁶ cm/s
2,COc1cc(/C=C/c2ccccc2)oc(=O)c1 [DEMETHOXYYANGONIN],186 ×10⁻⁶ cm/s
3,CCOC(=O)c1ccc(O)cc1 [ETHYL HYDROXYBENZOATE],43 ×10⁻⁶ cm/s
4,Cn1c2cccc(=O)c-2nc2ccccc21 [PYOCYANINE],299 ×10⁻⁶ cm/s
5,CCc1ccc(O)c(OC)c1 [4-ETHYLGUAIACOL],116 ×10⁻⁶ cm/s
6,CCOc1ccc(O)cc1 [P-HYDROXYPHENETOLE],35 ×10⁻⁶ cm/s
7,C=C[C@]12CN(C)[C@@H]3[C@H]4CO[C@H](C[C@H]41)[C@]1(C(=O)Nc4ccccc41)[C@@H]32 [GELSEMINE],13 ×10⁻⁶ cm/s

# Reference: paper PMC11876671, “Investigating blood–brain barrier penetration and neurotoxicity of natural products for central nervous system drug development” (Scientific Reports, 2025)
